Values quoted from earlier work, collected in patent US20130281387A1, “Chemosensory Receptor Ligand-Based Therapies” (ELCELYX THERAPEUTICS, INC., priority 2010, published 2013).

tested on: bitter receptor; settings: bitter phytonutrients in common plant foods

Structure (SMILES) | Taste quality
CC(=O)O[C@H]1CC(=O)OC(C)(C)[C@@H]2CC(=O)[C@]3(C)[C@H](CC[C@@]4(C)[C@H](c5ccoc5)OC(=O)[C@H]5O[C@]543)[C@@]12C [Nomilin] | Bitter
Oc1cc(O)c2c(c1)O[C@H](c1cc(O)c(O)c(O)c1)[C@H](O)C2 [Epigallocatechin] | Bitter with sweet
C=CCC(=NOS(=O)(=O)O)S[C@@H]1O[C@H](CO)[C@@H](O)[C@H](O)[C@H]1O (stereo in doubt) [Sinigrin] | Bitter
O=S(=O)(O)ON=C(Cc1c[nH]c2ccccc12)S[C@@H]1O[C@H](CO)[C@@H](O)[C@H](O)[C@H]1O [Glucobrassicin] | Bitter
S=C=NCc1ccccc1 [Benzyl isothiocyanate] | Acrid mustard oils;
C[S+]([O-])CCCCN=C=S (stereo not shown) [4-Methylsulfinyl butyl isothiocyanate] | Acrid mustard oils
C[S+]([O-])CCCN=C=S (stereo not shown) [3-Methyl-sulfinylpropyl isothiocyanate] | Acrid mustard oils
O=c1c(-c2ccc(O)cc2)coc2cc(O[C@@H]3O[C@H](CO)[C@@H](O)[C@H](O)[C@H]3O)ccc12 [Daidzin] | Astringent
C=CCN=C=S [Allyl-isothiocyanate] | Acrid mustard oils;
C=CC1CNC(=S)O1 (stereo not shown) [Goitrin, Goitrin 5-vinyl-2-oxazolidine thione] | Bitter
C=C[C@H](O)CC(=NOS(=O)(=O)O)S[C@@H]1O[C@H](CO)[C@@H](O)[C@H](O)[C@H]1O [Progoitrin] | Bitter
CC1(C)O[C@H]2CC(=O)OC[C@]23[C@H]2CC[C@@](C)([C@@H](O[C@@H]4O[C@H](CO)[C@@H](O)[C@H](O)[C@H]4O)c4ccoc4)[C@@]4(O[C@@H]4C(=O)O)[C@]2(C)C(=O)C[C@@H]13 [Limonin glucoside] | Tasteless

Continued, values first:

Taste quality | Structure (SMILES)
Bitter | O=c1c(O)c(-c2ccc(O)c(O)c2)oc2cc(O)cc(O)c12 [Quercetin]
Bitter | C[C@@H]1O[C@@H](O[C@H]2[C@H](Oc3cc(O)c4c(c3)O[C@H](c3ccc(O)cc3)CC4=O)O[C@H](CO)[C@@H](O)[C@@H]2O)[C@H](O)[C@H](O)[C@H]1O [Naringin]
Bitter or astringent | O=c1c(-c2ccc(O)cc2)coc2cc(O)cc(O)c12 [Genistein]
Bitter or astringent | O=c1c(-c2ccc(O)cc2)coc2cc(O)ccc12 [daidzein]
Bitter and astringent | O=C(O[C@@H]1Cc2c(O)cc(O)cc2O[C@@H]1c1ccc(O)c(O)c1)c1cc(O)c(O)c(O)c1 [Epicatechin gallate]
Bitter | CC1(C)O[C@H]2CC(=O)OC[C@]23[C@H]2CC[C@@]4(C)[C@H](c5ccoc5)OC(=O)[C@H]5O[C@]54[C@]2(C)C(=O)C[C@@H]13 [Limonin]
Bitter | COc1ccc(-c2cc(=O)c3c(OC)c(OC)c(OC)cc3o2)cc1OC [Sinensetin]
Bitter | COc1ccc(-c2cc(=O)c3c(OC)c(OC)c(OC)c(OC)c3o2)cc1OC [Nobiletin]
Bitter with sweet | O=C(O[C@@H]1Cc2c(O)cc(O)cc2O[C@@H]1c1cc(O)c(O)c(O)c1)c1cc(O)c(O)c(O)c1 [Epigallocatechin gallate]
Bitter | COc1ccc(-c2cc(=O)c3c(OC)c(OC)c(OC)c(OC)c3o2)cc1 [Tangeretin]
Astringent | O=c1c(-c2ccc(O)cc2)coc2cc(O[C@@H]3O[C@H](CO)[C@@H](O)[C@H](O)[C@H]3O)cc(O)c12 [Genistin]

tested on: GLP-1; settings: humans, after administration

Structure (SMILES) | post-prandial GLP-1 levels
OCCN1C[C@H](O)[C@@H](O)[C@H](O)[C@H]1CO [miglitol] | increase

tested on: gut hormones; settings: humans, after administration

Structure (SMILES) | gut hormones in the circulation
C=C1C[C@@]23CC[C@H]4[C@@](C)(CCC[C@@]4(C)C(=O)O[C@@H]4O[C@H](CO)[C@@H](O)[C@H](O)[C@H]4O)[C@@H]2CC[C@]1(O[C@@H]1O[C@H](CO)[C@@H](O)[C@H](O[C@@H]2O[C@H](CO)[C@@H](O)[C@H](O)[C@H]2O)[C@H]1O[C@@H]1O[C@H](CO)[C@@H](O)[C@H](O)[C@H]1O)C3 [Rebaudioside A] | no alterations
